Paper PMC10195144, “Purification and characterization of a cold-active myrosinase from marine Pseudomonas oleovorans SuMy07” (Acta Biochimica et Biophysica Sinica, 2023)

Test system: T1, myrosinase of SuMy07
T1 construct: gene beta-thioglucoside glucohydrolase; native enzyme purified from the marine isolate (ultrafiltration, ammonium sulfate, Superdex 200); two subunits of 65 kDa
Test: double-reciprocal plot of sinigrin hydrolysis
Type: biochemical, Pseudomonas oleovorans
Conditions: pH 7.0, 25 °C

Km: 1400 µM
SMILES: C=CC/C(=N/OS(=O)(=O)O)S[C@@H]1O[C@H](CO)[C@@H](O)[C@H](O)[C@H]1O [sinigrin hydrate]
